# Measurements taken from patent US5409709A (priority 1991, dated 1995).
# Experiments:
# [1] = test system: body temperature (pyrogenic area, yeast); experiment: Antipyretic action (yeast-induced fever); type: in vivo, Wistar strain male rats; details: oral, rat, up to 6 h; in terms of the amount of the antipyretic analgesic ingredient
# [2] = test system: writhing syndrome; experiment: Analgesic action (acetic acid writhing syndrome); type: in vivo, ddY strain male mice; details: oral, mouse; in terms of the amount of analgesic antipyretic ingredient
# [3] = test system: pain threshold; experiment: Analgesic action (pressure stimulation of tail base, rise ratio of pain threshold); type: in vivo, Wistar strain male rats
# Protocol: Test medication A consisted of a suspension of Acasia used as the control. The other test medications contained the ingredients listed in the Table below, and were suspended in Acasia solution. These test medications were administered orally at a volume of 1 ml/100 g B.W. A pressure stimulation device (Analgesy-meter Model TK-201, Unicom) was used to apply pressure to the base of the tails of the animals. A pain threshold of […] was selected for the experimented animal based on parameters of reaction to temporary pain consisting of writhing, fleeing and squealing. The pain threshold was measured prior to oral administration of each test medication as well as at 30 and 120 minutes after administration. The ratio of the rise in the pain threshold at 30 and 120 minutes after administration was calculated from comparison with that before administration.
smiles,measurement,setting,value
"CC(C)Cc1ccc(C(C)C(=O)O)cc1 (stereo not shown) [Ibuprofen, 2-(4-isobutylphenyl)propionic acid]",ED50,[1],20.4 mg/kg
same,ED50,[2],137 mg/kg
same,Pain threshold at 30 minutes (in words),[3]; 30 minutes after administration,a remarkable rise was observed
same,Pain threshold at 120 minutes (in words),[3]; 120 minutes after administration,essentially equal to that before administration
